What all share (assay type): biochemical
Assay [1] concerns the target PI3Kβ (Homo sapiens (Human), UniProt P42338). The assay is described as follows: TR-FRET enzymatic assay of PI3K isoforms (PI3Kβ). The following applies: TR-FRET, 2×Km ATP, 2 μM PIP2, incubated for 30 minutes at 25° C.; read-out: β IC50. On the procedure:
(§1) The compounds of formula (I) were characterized for their enzymatic activity against the PI3K isoforms. Certain compounds of the present application, including certain compounds of formula (II) and (III) were also characterized for their enzymatic activity against PI3K isoforms. The activities were measured using a time-resolved fluorescence resonance energy transfer (TR-FRET) assay.

Assay [2] concerns the target PI3Kδ (Homo sapiens (Human), UniProt O00329). The assay is described as follows: TR-FRET enzymatic assay of PI3K isoforms (PI3Kδ). The following applies: 2×Km ATP, 2 μM PIP2, incubated for 30 minutes at 25° C., read-out: δ IC50. As for the experimental part:
as §1

Assay [3] deals with PI3Kγ (Homo sapiens (Human), UniProt P48736). As to the kind of experiment: TR-FRET enzymatic assay of PI3K isoforms (PI3Kγ). The following applies: read-out: γ IC50. As for the experimental part:
as §1

Setting [4] is: TR-FRET, 2×Km ATP, 2 μM PIP2, PI3Kγ at 2 nM, incubated for 30 minutes at 25° C.

SMILES strings stand for the structures. Like-named read-outs stand apart in the source and are kept apart here.

Sequence of PI3Kβ (P42338 whole entry, canonical isoform): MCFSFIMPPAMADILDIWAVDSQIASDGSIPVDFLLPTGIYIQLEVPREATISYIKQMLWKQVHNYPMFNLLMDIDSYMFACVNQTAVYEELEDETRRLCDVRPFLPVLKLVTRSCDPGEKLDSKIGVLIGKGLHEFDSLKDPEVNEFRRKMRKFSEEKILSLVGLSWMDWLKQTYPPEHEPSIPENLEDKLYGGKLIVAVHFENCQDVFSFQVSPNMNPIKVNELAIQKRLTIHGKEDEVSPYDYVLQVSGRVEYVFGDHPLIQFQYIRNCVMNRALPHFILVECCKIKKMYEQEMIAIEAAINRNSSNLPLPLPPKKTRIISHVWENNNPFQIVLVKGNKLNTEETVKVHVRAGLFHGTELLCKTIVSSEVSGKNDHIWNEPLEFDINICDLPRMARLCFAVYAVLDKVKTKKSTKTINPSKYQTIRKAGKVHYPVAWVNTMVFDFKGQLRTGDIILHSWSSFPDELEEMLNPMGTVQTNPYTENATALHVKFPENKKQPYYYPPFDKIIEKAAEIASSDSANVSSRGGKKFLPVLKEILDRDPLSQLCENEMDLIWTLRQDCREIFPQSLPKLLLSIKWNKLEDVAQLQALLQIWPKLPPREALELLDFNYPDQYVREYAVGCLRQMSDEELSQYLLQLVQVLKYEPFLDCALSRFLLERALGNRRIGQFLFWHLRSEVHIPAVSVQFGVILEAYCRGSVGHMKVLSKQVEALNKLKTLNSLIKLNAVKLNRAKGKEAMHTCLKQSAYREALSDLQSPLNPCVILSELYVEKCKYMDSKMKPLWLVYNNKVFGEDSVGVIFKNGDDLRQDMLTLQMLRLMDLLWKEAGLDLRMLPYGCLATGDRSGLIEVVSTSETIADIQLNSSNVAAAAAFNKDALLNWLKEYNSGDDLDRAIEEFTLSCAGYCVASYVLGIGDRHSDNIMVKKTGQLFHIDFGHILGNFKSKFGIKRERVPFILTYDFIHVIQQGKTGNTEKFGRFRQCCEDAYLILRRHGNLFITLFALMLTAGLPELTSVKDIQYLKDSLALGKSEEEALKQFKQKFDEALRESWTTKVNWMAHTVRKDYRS
Sequence of PI3Kβ (P27986 whole entry partner, canonical isoform): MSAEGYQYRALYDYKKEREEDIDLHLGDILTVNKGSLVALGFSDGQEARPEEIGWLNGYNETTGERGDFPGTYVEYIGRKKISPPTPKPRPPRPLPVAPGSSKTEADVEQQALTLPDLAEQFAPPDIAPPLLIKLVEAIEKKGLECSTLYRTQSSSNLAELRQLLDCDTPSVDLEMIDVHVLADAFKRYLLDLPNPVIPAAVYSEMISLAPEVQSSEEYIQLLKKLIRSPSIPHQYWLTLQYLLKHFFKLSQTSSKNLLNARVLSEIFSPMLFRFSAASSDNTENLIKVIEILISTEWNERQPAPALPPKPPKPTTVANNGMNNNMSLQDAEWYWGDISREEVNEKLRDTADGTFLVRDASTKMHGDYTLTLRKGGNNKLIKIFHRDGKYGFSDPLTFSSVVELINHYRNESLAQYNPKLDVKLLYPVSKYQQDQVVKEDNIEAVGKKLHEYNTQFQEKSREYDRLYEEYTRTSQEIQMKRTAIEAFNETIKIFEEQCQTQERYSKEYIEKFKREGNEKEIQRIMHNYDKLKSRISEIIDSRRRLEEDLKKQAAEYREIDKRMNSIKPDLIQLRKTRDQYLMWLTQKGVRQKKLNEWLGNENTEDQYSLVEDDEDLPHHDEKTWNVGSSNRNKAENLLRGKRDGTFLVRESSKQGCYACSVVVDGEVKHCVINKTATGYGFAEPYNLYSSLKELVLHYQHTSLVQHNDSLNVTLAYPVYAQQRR
Sequence of PI3Kδ (O00329 whole entry, canonical isoform): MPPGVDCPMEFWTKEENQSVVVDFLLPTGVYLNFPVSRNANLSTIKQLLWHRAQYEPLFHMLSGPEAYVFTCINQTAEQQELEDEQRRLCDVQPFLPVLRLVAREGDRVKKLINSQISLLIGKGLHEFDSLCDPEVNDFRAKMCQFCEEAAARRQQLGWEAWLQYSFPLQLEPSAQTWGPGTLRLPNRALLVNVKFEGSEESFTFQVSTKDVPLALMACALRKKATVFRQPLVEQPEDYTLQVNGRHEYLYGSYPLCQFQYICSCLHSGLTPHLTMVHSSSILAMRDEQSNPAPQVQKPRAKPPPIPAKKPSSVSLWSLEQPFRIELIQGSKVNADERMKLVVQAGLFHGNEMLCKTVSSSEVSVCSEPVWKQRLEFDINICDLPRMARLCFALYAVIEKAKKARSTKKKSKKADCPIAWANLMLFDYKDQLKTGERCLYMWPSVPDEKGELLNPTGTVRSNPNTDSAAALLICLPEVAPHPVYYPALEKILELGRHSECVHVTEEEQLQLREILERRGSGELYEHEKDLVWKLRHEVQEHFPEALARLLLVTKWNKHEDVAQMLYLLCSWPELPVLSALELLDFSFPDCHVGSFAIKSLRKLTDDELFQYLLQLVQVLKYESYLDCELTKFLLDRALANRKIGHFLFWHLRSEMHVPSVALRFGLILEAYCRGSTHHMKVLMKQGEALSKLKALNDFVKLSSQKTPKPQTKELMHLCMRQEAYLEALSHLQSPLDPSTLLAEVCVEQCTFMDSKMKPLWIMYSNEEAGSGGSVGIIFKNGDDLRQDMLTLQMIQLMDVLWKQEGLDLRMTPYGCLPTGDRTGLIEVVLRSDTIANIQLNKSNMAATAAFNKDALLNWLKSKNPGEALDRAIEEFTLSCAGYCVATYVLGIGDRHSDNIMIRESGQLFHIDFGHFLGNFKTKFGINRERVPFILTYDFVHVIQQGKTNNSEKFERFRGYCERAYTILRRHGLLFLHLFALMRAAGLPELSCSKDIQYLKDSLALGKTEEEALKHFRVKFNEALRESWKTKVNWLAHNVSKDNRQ
Sequence of PI3Kδ (P27986 whole entry partner, canonical isoform): as the sequence (P27986 whole entry partner, canonical isoform) above
Sequence of PI3Kγ (P48736 whole entry, canonical isoform): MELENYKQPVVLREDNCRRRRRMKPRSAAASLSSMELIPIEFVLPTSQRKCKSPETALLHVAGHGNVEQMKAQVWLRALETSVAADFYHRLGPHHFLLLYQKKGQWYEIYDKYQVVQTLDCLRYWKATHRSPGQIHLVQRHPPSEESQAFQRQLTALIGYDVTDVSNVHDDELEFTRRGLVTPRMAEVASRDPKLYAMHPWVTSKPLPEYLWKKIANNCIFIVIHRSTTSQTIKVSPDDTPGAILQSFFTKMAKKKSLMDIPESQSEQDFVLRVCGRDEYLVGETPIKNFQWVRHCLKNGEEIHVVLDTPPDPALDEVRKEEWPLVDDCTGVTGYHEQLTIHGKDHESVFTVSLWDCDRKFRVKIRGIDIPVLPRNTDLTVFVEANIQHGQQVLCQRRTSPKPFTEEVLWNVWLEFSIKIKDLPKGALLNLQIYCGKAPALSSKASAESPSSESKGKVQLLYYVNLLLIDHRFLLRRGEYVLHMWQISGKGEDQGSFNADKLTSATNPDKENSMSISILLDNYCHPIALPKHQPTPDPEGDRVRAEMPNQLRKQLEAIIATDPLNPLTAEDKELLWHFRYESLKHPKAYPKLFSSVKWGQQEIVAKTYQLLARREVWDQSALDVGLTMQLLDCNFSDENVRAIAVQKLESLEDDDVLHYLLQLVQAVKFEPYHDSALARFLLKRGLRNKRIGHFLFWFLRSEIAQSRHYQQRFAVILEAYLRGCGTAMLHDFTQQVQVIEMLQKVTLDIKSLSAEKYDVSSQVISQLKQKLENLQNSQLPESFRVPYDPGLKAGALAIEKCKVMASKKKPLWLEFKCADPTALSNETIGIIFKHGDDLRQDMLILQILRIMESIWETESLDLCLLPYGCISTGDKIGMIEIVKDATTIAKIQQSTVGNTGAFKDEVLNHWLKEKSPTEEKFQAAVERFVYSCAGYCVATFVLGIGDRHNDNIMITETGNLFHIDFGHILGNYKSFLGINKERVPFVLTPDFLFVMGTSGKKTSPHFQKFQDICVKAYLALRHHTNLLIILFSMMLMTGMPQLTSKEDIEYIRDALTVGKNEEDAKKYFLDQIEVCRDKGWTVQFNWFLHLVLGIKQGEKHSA
Sequence of PI3Kγ (Q8WYR1 whole entry partner, canonical isoform): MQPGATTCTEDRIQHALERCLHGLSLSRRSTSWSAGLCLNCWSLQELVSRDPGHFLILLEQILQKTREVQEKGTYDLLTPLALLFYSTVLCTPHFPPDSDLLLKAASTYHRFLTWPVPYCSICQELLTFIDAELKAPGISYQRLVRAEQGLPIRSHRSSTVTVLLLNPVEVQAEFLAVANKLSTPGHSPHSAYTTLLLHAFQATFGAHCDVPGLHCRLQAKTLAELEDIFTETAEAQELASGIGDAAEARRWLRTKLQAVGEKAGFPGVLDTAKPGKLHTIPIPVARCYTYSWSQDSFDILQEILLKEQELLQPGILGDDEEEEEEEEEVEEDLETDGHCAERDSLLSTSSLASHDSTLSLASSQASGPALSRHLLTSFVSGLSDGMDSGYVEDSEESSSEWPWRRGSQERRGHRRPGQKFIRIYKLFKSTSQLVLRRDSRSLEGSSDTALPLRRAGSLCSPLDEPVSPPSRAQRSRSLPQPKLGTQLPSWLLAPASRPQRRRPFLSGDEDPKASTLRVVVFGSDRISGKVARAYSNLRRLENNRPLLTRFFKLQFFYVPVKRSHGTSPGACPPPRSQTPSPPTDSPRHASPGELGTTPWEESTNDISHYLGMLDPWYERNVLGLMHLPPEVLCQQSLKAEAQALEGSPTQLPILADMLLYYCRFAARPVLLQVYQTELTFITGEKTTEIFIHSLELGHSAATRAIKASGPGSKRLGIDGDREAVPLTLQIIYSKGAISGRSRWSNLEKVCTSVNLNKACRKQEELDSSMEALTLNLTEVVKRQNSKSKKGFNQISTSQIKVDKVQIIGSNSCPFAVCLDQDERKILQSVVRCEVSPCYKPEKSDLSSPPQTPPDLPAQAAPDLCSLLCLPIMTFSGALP

For the compound `N#Cc1c(N)ncnc1N1CCC[C@H]1c1nc2cccc(Cl)c2c(=O)n1-c1cccc(NC(=O)NCC2OCCO2)c1` [Compound 82, (S)-1-((1,3-dioxolan-2-yl)methyl)-3-(3-(2-(1-(6-amino-5-cyanopyrimidin-4-yl)pyrrolidin-2-yl)-5-chloro-4-oxoquinazolin-3(4H)-yl)phenyl)urea], the IC50 in assay [1] was determined as 29 nM; in assay [2], 16 nM; in assay [3] (setting [4]) it was 8600 nM.

For the compound `CCNC(=O)Nc1cccc(-n2c([C@@H]3CCCN3c3ncnc(N)c3C#N)nc3cccc(Cl)c3c2=O)c1` [Compound 83, (S)-1-(3-(2-(1-(6-amino-5-cyanopyrimidin-4-yl)pyrrolidin-2-yl)-5-chloro-4-oxoquinazolin-3(4H)-yl)phenyl)-3-ethylurea], the IC50 in assay [1] was determined as 13 nM; in assay [2] it was 9 nM; in assay [3] (setting [4]), 3300 nM.

Regarding `C[C@H](Nc1ncnc2[nH]cnc12)c1nc2cccc(Cl)c2c(=O)n1-c1cccc(NC(N)=O)c1` [Compound 86, (S)-1-(3-(2-(1-((9H-purin-6-yl)amino)ethyl)-5-chloro-4-oxoquinazolin-3(4H)-yl)phenyl)urea], the IC50 in assay [1] is 22 nM; in assay [2] it was 19 nM; in assay [3] (setting [4]) it was 4300 nM.

For `CNC(=O)Nc1cccc(-n2c([C@H](C)Nc3ncnc4[nH]cnc34)nc3cccc(Cl)c3c2=O)c1` [Compound 87, (S)-1-(3-(2-(1-((9H-purin-6-yl)amino)ethyl)-5-chloro-4-oxoquinazolin-3(4H)-yl)phenyl)-3-methylurea], the IC50 stood at 21 nM in assay [1], 33 nM in assay [2] and 4500 nM in assay [3] (setting [4]).

For the compound `C[C@H](Nc1ncnc(N)c1C#N)c1nc2cccc(Cl)c2c(=O)n1-c1cccc(NC(N)=O)c1` [Compound 88, (S)-1-(3-(2-(1-((6-amino-5-cyanopyrimidin-4-yl)amino)ethyl)-5-chloro-4-oxoquinazolin-3(4H)-yl)phenyl)urea], the IC50 worked out at 4 nM in assay [1], 2 nM in assay [2] and 2700 nM in assay [3] (setting [4]).

As for `CNC(=O)Nc1cccc(-n2c([C@H](C)Nc3ncnc(N)c3C#N)nc3cccc(Cl)c3c2=O)c1` [Compound 89, (S)-1-(3-(2-(1-((6-amino-5-cyanopyrimidin-4-yl)amino)ethyl)-5-chloro-4-oxoquinazolin-3(4H)-yl)phenyl)-3-methylurea], the IC50 in assay [1] is 6 nM; in assay [2], 6 nM; in assay [3] (setting [4]), 4300 nM.

On to `CCNC(=O)Nc1cccc(-n2c([C@H](C)Nc3ncnc4[nH]cnc34)nc3cccc(Cl)c3c2=O)c1` [Compound 91, (S)-1-(3-(2-(1-((9H-purin-6-yl)amino)ethyl)-5-chloro-4-oxoquinazolin-3(4H)-yl)phenyl)-3-ethylurea], for which the values for the IC50 in assay [1], in assay [2] and in assay [3] (setting [4]) were 32 nM, 19 nM and 1400 nM, respectively.

On to `CCNC(=O)Nc1cccc(-n2c([C@H](C)Nc3ncnc(N)c3C#Cc3ccccn3)nc3cccc(Cl)c3c2=O)c1` [Compound 92], for which the IC50 in assay [1] was found to be 16 nM; in assay [2], 1 nM; in assay [3] (setting [4]), 1600 nM.

Regarding `CCNC(=O)Nc1cccc(-n2c([C@H](C)Nc3nc(C)nc(N)n3)nc3cccc(Cl)c3c2=O)c1` [Compound 93, (S)-1-(3-(2-(1-((4-amino-6-methyl-1,3,5-triazin-2-yl)amino)ethyl)-5-chloro-4-oxoquinazolin-3(4H)-yl)phenyl)-3-ethylurea], the values for the IC50 in assay [1], in assay [2] and in assay [3] (setting [4]) were 70 nM, 110 nM and 3700 nM, respectively.

On to `C[C@H](Nc1ncnc(N)c1C#N)c1nc2cccc(Cl)c2c(=O)n1-c1cccc(NC(=O)Nc2ccccc2C(=O)O)c1` [Compound 96, (S)-2-(3-(3-(2-(1-((6-amino-5-cyanopyrimidin-4-yl)amino)ethyl)-5-chloro-4-oxoquinazolin-3(4H)-yl)phenyl)ureido)benzoic acid], for which the figures for the IC50 in assay [1], in assay [2] and in assay [3] (setting [4]) were 230 nM, 5 nM and 2600 nM, respectively.

Turning to `C[C@H](Nc1ncnc(N)c1C#N)c1nc2cccc(Cl)c2c(=O)n1-c1cccc(NC(=O)Nc2ccccc2S(=O)(=O)O)c1` [Compound 97, (S)-2-(3-(3-(2-(1-((6-amino-5-cyanopyrimidin-4-yl)amino)ethyl)-5-chloro-4-oxoquinazolin-3(4H)-yl)phenyl)ureido)benzenesulfonic acid], the figures for the IC50 in assay [1], in assay [2] and in assay [3] (setting [4]) were 120 nM, 5 nM and 6000 nM, respectively.

Regarding `C[C@H](Nc1ncnc(N)c1C#N)c1nc2cccc(Cl)c2c(=O)n1-c1cccc(NC(=O)Nc2ccccc2OCC(=O)O)c1` [Compound 98, (S)-2-(2-(3-(3-(2-(1-((6-amino-5-cyanopyrimidin-4-yl)amino)ethyl)-5-chloro-4-oxoquinazolin-3(4H)-yl)phenyl)ureido)phenoxy)acetic acid], the IC50 in assay [1] turned out to be 58 nM; in assay [2], 29 nM; in assay [3] (setting [4]), 3300 nM.

With `C[C@H](Nc1ncnc(N)c1C#N)c1nc2cccc(Cl)c2c(=O)n1-c1cccc(NC(=O)Nc2ccc(Cl)c(C(F)(F)F)c2)c1` [Compound 99, (S)-1-(3-(2-(1-((6-amino-5-cyanopyrimidin-4-yl)amino)ethyl)-5-chloro-4-oxoquinazolin-3(4H)-yl)phenyl)-3-(4-chloro-3-(trifluoromethyl)phenyl)urea], the IC50 amounted to 8 nM in assay [1], 19 nM in assay [2] and 1600 nM in assay [3] (setting [4]).

For `C[C@H](Nc1ncnc(N)c1C#N)c1nc2cccc(Cl)c2c(=O)n1-c1cccc(NC(=O)Nc2ccccc2Cl)c1` [Compound 100, (S)-1-(3-(2-(1-((6-amino-5-cyanopyrimidin-4-yl)amino)ethyl)-5-chloro-4-oxoquinazolin-3(4H)-yl)phenyl)-3-(2-chlorophenyl)urea], the results for the IC50 in assay [1], in assay [2] and in assay [3] (setting [4]) were 1 nM, 3 nM and 1400 nM, respectively.

`C[C@H](Nc1ncnc(N)c1C#N)c1nc2cccc(Cl)c2c(=O)n1-c1cccc(NC(=O)Nc2ccccc2C(F)(F)F)c1` [Compound 101, (S)-1-(3-(2-(1-((6-amino-5-cyanopyrimidin-4-yl)amino)ethyl)-5-chloro-4-oxoquinazolin-3(4H)-yl)phenyl)-3-(2-(trifluoromethyl)phenyl)urea]: the IC50 was 5 nM in assay [1], 13 nM in assay [2] and 2500 nM in assay [3] (setting [4]).

For `C[C@H](Nc1ncnc2[nH]cnc12)c1nc2cccc(Cl)c2c(=O)n1-c1cccc(NC(=O)Nc2ccccc2C(F)(F)F)c1` [Compound 102, (S)-1-(3-(2-(1-((9H-purin-6-yl)amino)ethyl)-5-chloro-4-oxoquinazolin-3(4H)-yl)phenyl)-3-(2-(trifluoromethyl)phenyl)urea], the IC50 amounted to 7 nM in assay [1], 31 nM in assay [2] and 670 nM in assay [3] (setting [4]).

As to `C[C@H](Nc1ncnc2[nH]cnc12)c1nc2cccc(Cl)c2c(=O)n1-c1cccc(NC(=O)Nc2c(Cl)cccc2Cl)c1` [Compound 104, (S)-1-(3-(2-(1-((9H-purin-6-yl)amino)ethyl)-5-chloro-4-oxoquinazolin-3(4H)-yl)phenyl)-3-(2,6-dichlorophenyl)urea], the IC50 in assay [1] was 8 nM; in assay [2], 30 nM; in assay [3] (setting [4]) it was 740 nM.

Regarding `C[C@H](Nc1ncnc(N)c1C#N)c1nc2cccc(Cl)c2c(=O)n1-c1cccc(NC(=O)Nc2ccccc2C#N)c1` [Compound 106, (S)-1-(3-(2-(1-((6-amino-5-cyanopyrimidin-4-yl)amino)ethyl)-5-chloro-4-oxoquinazolin-3(4H)-yl)phenyl)-3-(2-cyanophenyl)urea], the IC50 in assay [1] is 4800 nM; in assay [2], 20 nM; in assay [3], over 10000 nM.

With `Cc1ccccc1NC(=O)Nc1cccc(-n2c([C@H](C)Nc3ncnc(N)c3C#N)nc3cccc(Cl)c3c2=O)c1` [Compound 107, (S)-1-(3-(2-(1-((6-amino-5-cyanopyrimidin-4-yl)amino)ethyl)-5-chloro-4-oxoquinazolin-3(4H)-yl)phenyl)-3-(o-tolyl)urea], the IC50 in assay [1] is 16 nM; in assay [2], 6 nM; in assay [3] (setting [4]) it was 1500 nM.

For `C[C@H](Nc1ncnc(N)c1C#N)c1nc2cccc(F)c2c(=O)n1-c1cccc(NC(=O)Nc2ccccc2Cl)c1` [Compound 108, (S)-1-(3-(2-(1-((6-amino-5-cyanopyrimidin-4-yl)amino)ethyl)-5-fluoro-4-oxoquinazolin-3(4H)-yl)phenyl)-3-(2-chlorophenyl)urea], the IC50 in assay [1] is 3 nM; in assay [2], 24 nM; in assay [3] (setting [4]) it was 8500 nM.

On to `COc1ccccc1NC(=O)Nc1cccc(-n2c([C@H](C)Nc3ncnc(N)c3C#N)nc3cccc(Cl)c3c2=O)c1` [Compound 109, (S)-1-(3-(2-(1-((6-amino-5-cyanopyrimidin-4-yl)amino)ethyl)-5-chloro-4-oxoquinazolin-3(4H)-yl)phenyl)-3-(2-methoxyphenyl)urea], for which the IC50 was determined as 9 nM in assay [1], 2 nM in assay [2] and 2600 nM in assay [3] (setting [4]).

For the compound `C[C@H](Nc1ncnc(N)c1C#N)c1nc2cccc(F)c2c(=O)n1-c1cccc(NC(=O)Nc2ccccc2C(F)(F)F)c1` [Compound 110, (S)-1-(3-(2-(1-((6-amino-5-cyanopyrimidin-4-yl)amino)ethyl)-5-fluoro-4-oxoquinazolin-3(4H)-yl)phenyl)-3-(2-(trifluoromethyl)phenyl)urea], the values for the IC50 in assay [1], in assay [2] and in assay [3] (setting [4]) were 16 nM, 57 nM and over 10000 nM, respectively.

Values taken from US10221197B2, “Phosphatidylinositol 3-kinase inhibitors” (Gilead Sciences, Inc., priority 2014, dated 2019).
